Results published in ChEMBL document CHEMBL5550152, “Design, synthesis and evaluation of novel prostate-specific membrane antigen-targeted aryl [18F]fluorosulfate PET tracers” (Bioorg Med Chem, 2024).

Assays:
[1] = Drug distribution in nude mouse tumor xenografted with human 22Rv1 cells at 8.1 MBq,iv measured after 4 hrs; type: ADME, tissue-based, Neoplasm, CWR22R; details: in vivo
[2] = Drug distribution in nude mouse heart xenografted with human 22Rv1 cells at 8.1 MBq,iv measured after 2 hrs; type: ADME, tissue-based, CWR22R; details: in vivo
[3] = Drug uptake in mouse tumor xenografted with human 22Rv1 cells at 7.4 MBq, iv pretreated with 2-PMPA measured after 2 hrs by PET imaging analysis relative to control; type: ADME, organism-based, Neoplasm, CWR22R; details: in vivo
[4] = Drug distribution in nude mouse muscle tissue xenografted with human 22Rv1 cells at 8.1 MBq,iv measured after 1 hr; type: ADME, tissue-based, CWR22R; details: in vivo
[5] = Drug distribution in nude mouse liver xenografted with human 22Rv1 cells at 8.1 MBq,iv measured after 2 hrs in presence of 2-PMPA; type: ADME, tissue-based, CWR22R; details: in vivo
[6] = Drug distribution in nude mouse liver xenografted with human 22Rv1 cells at 8.1 MBq,iv measured after 4 hrs; type: ADME, tissue-based, CWR22R; details: in vivo
[7] = Drug distribution in nude mouse large intestine xenografted with human 22Rv1 cells at 8.1 MBq,iv measured after 1 hr; type: ADME, tissue-based, CWR22R; details: in vivo
[8] = Drug distribution in nude mouse bone xenografted with human 22Rv1 cells at 8.1 MBq,iv measured after 2 hrs in presence of 2-PMPA; type: ADME, tissue-based, Bone element, CWR22R; details: in vivo
[9] = Drug uptake in mouse tumor xenografted with human 22Rv1 cells at 7.4 MBq, iv measured after 2 hrs by PET imaging analysis relative to control; type: ADME, organism-based, Neoplasm, CWR22R; details: in vivo
[10] = Drug uptake in mouse tumor xenografted with human 22Rv1 cells at 7.4 MBq, iv pretreated with 2-PMPA measured after 4 hrs by PET imaging analysis relative to control; type: ADME, organism-based, Neoplasm, CWR22R; details: in vivo
[11] = Drug distribution in nude mouse bone xenografted with human 22Rv1 cells at 8.1 MBq,iv measured after 2 hrs; type: ADME, tissue-based, Bone element, CWR22R; details: in vivo
[12] = Drug distribution in nude mouse gall bladder xenografted with human 22Rv1 cells at 8.1 MBq,iv measured after 1 hr; type: ADME, tissue-based, CWR22R; details: in vivo
[13] = Drug distribution in nude mouse spleen xenografted with human 22Rv1 cells at 8.1 MBq,iv measured after 2 hrs; type: ADME, tissue-based, CWR22R; details: in vivo
[14] = Drug distribution in nude mouse kidney xenografted with human 22Rv1 cells at 8.1 MBq,iv measured after 2 hrs; type: ADME, tissue-based, CWR22R; details: in vivo
[15] = Drug distribution in nude mouse liver xenografted with human 22Rv1 cells at 8.1 MBq,iv measured after 1 hr; type: ADME, tissue-based, CWR22R; details: in vivo
[16] = Drug uptake in human 22Rv1 cells at 3.7 10^-2MBq measured after 1 hr relative to control; type: ADME, cell-based; details: cwr22r
[17] = Drug distribution in nude mouse brain xenografted with human 22Rv1 cells at 8.1 MBq,iv measured after 4 hrs; type: ADME, tissue-based, CWR22R; details: in vivo
[18] = Drug distribution in nude mouse lung xenografted with human 22Rv1 cells at 8.1 MBq,iv measured after 2 hrs; type: ADME, tissue-based, CWR22R; details: in vivo
[19] = Drug distribution in nude mouse kidney xenografted with human 22Rv1 cells at 8.1 MBq,iv measured after 4 hrs; type: ADME, tissue-based, CWR22R; details: in vivo
[20] = Drug distribution in nude mouse muscle tissue xenografted with human 22Rv1 cells at 8.1 MBq,iv measured after 2 hrs in presence of 2-PMPA; type: ADME, tissue-based, CWR22R; details: in vivo
[21] = Drug distribution in nude mouse large intestine xenografted with human 22Rv1 cells at 8.1 MBq,iv measured after 4 hrs; type: ADME, tissue-based, CWR22R; details: in vivo
[22] = Drug distribution in nude mouse stomach xenografted with human 22Rv1 cells at 8.1 MBq,iv measured after 1 hr; type: ADME, tissue-based, CWR22R; details: in vivo
[23] = Drug distribution in nude mouse blood xenografted with human 22Rv1 cells at 8.1 MBq,iv measured after 4 hrs; type: ADME, tissue-based, CWR22R; details: in vivo
[24] = Drug uptake in human 22Rv1 cells at 3.7 10^-2MBq pretreated with 2-PMPA for 30 mins followed by compound addition and measured after 4 hr relative to control; type: ADME, cell-based; details: cwr22r
[25] = Drug uptake in mouse tumor xenografted with human 22Rv1 cells at 7.4 MBq, iv measured after 4 hrs by PET imaging analysis relative to control; type: ADME, organism-based, Neoplasm, CWR22R; details: in vivo
[26] = Drug distribution in nude mouse brain xenografted with human 22Rv1 cells at 8.1 MBq,iv measured after 2 hrs in presence of 2-PMPA; type: ADME, tissue-based, CWR22R; details: in vivo
[27] = Drug distribution in nude mouse stomach xenografted with human 22Rv1 cells at 8.1 MBq,iv measured after 2 hrs; type: ADME, tissue-based, CWR22R; details: in vivo
[28] = Drug distribution in nude mouse heart xenografted with human 22Rv1 cells at 8.1 MBq,iv measured after 1 hr; type: ADME, tissue-based, CWR22R; details: in vivo
[29] = Drug distribution in nude mouse heart xenografted with human 22Rv1 cells at 8.1 MBq,iv measured after 4 hrs; type: ADME, tissue-based, CWR22R; details: in vivo
[30] = Drug distribution in nude mouse gall bladder xenografted with human 22Rv1 cells at 8.1 MBq,iv measured after 2 hrs; type: ADME, tissue-based, CWR22R; details: in vivo
[31] = Drug distribution in nude mouse heart xenografted with human 22Rv1 cells at 8.1 MBq,iv measured after 2 hrs in presence of 2-PMPA; type: ADME, tissue-based, CWR22R; details: in vivo
[32] = Drug distribution in nude mouse lung xenografted with human 22Rv1 cells at 8.1 MBq,iv measured after 1 hr; type: ADME, tissue-based, CWR22R; details: in vivo

SMILES: COc1cc(C(=O)N[C@@H](CCC(=O)O)C(=O)N[C@@H](CCC(=O)O)C(=O)NCc2ccc(C(=O)N[C@@H](Cc3ccc4ccccc4c3)C(=O)NCCCC[C@H](NC(=O)N[C@@H](CCC(=O)O)C(=O)O)C(=O)O)cc2)ccc1OS(=O)(=O)[18F]
- Drug uptake [1]: 4.47 % ID/g
- Drug uptake [2]: 0.97 % ID/g
- Drug uptake [3]: 1.37 % ID/g
- Drug uptake [4]: 1.32 % ID/g
- Drug uptake [5]: 2.4 % ID/g
- Drug uptake [6]: 0.79 % ID/g
- Drug uptake [7]: 2.21 % ID/g
- Drug uptake [8]: 2.49 % ID/g
- Drug uptake [9]: 2.85 % ID/g
- Drug uptake [10]: 1.4 % ID/g
- Drug uptake [11]: 3.79 % ID/g
- Drug uptake [12]: 3.69 % ID/g
- Drug uptake [13]: 1.23 % ID/g
- Drug uptake [14]: 23.42 % ID/g
- Drug uptake [15]: 4.61 % ID/g
- Drug uptake [16]: 0.72%
- Drug uptake [17]: 0.02 % ID/g
- Drug uptake [18]: 1.28 % ID/g
- Drug uptake [19]: 19.91 % ID/g
- Drug uptake [20]: 0.46 % ID/g
- Drug uptake [21]: 1.34 % ID/g
- Drug uptake [22]: 1.75 % ID/g
- Drug uptake [23]: 0.8 % ID/g
- Drug uptake [24]: 0.26%
- Drug uptake [25]: 3.25 % ID/g
- Drug uptake [26]: 0.08 % ID/g
- Drug uptake [27]: 0.95 % ID/g
- Drug uptake [28]: 1.57 % ID/g
- Drug uptake [29]: 0.31 % ID/g
- Drug uptake [30]: 6.05 % ID/g
- Drug uptake [31]: 0.85 % ID/g
- Drug uptake [32]: 3.18 % ID/g
